Series [1] has as its system DHT production. Put plainly: ELISA for DHT detection in male HFDP cells. The series is classed as cell-based, human. Conditions: 5 μM testosterone. The method, then:
Dihydrotestosterone (DHT) detection was performed using the Aviva Systems Biology dihydrotestosterone ELISA kit (OKEH02531). The technique is based on a competitive binding enzyme immunoassay. 96 well plate has been pre-coated with an antibiotinylated dihydrotestosterone antibody. 50 μl of HFDP cells control and treated samples were added to the wells along with 50 μl of 1× dihydrotestosterone-Biotin complex. After incubation at 37° C. for 60 min wells were washed 3 times with 1× Wash buffer and was added to each well 100 μl of Avidin-HRP conjugate solution. Another step of incubation at 37° C. for 45 min and washing with 1× wash buffer was performed. 90 μl of TMB subtract was added and to each well followed by incubation in dark, 37° C. for 15-30 minutes. Finally, 50 μl of a stop solution was added and the quantification was determined by measuring the optical density at 450 nm in an enzyme-linked immunosorbent assay (Spark, Tecan) reader.

The subject of series [2] is human follicle derma papilla cells (HFDP). Put plainly: Cell proliferation assay in HFDP cells. In kind it is cell-based. The following applies: 0.5 ug/ml. The method, then: Adherent human cell lines were cultured according to standard mammalian tissue culture protocols and sterile technique. Human follicle derma papilla cells were cultured in human follicle dermal papilla cell growth medium, ready to use, low-serum. Keratinocyte cells (HaCaT) were cultured in high glucose Dulbecco's Modified Eagle Medium with 10% serum. Normal human […] cells such as HFF and BJ were culture in BIOAMF-2 complete medium (Biological industries). All media was supplemented with streptomycin ([…]), penicillin (100 U/ml) and Nystatin (12.5 U/ml). Cells were incubated in 5% CO2 at 37° C. All tissue culture were maintained in 25 cm^2 Nunc™ cell culture treated EasYFlask™ (Thermofisher scientific) and all the media and supplements were obtained from Biological Industries. Treatment were performed by plating cells in a Nunc™ 96 micro well delta surface plates (Thermofisher scientific) in a starting confluence of 0.5×10^4 cells/well. After 24 h of incubation the cells were treated with the ZM-26 composition.
Viability of the cells following treatment was determined using a commercially available MTT assay kit (ABCAM, ab146345) and performed according to manufacturer's instructions. […] The quantification was determined by measuring the optical density at 570 nm in an enzyme-linked immunosorbent assay (Spark, Tecan) reader. […]

Results on two molecules are retold here after patent US11160750B2, “Composition and method for promoting hair growth” (ZivMas LLC, priority 2017, dated 2021).

`C[C@]12CC[C@H]3[C@@H](CCC4=CC(=O)CC[C@@]43C)[C@@H]1CC[C@@H]2O` [testosterone] had a DHT levels increase in series [1] of 4.4 fold.

`Nc1cc(N2CCCCC2)nc(N)[n+]1[O-]` [minoxidil]: in series [2], the “cell viability after 48 h treatment” value is “caused cell death”.
